# Results reported in PMC9457941, “Synthesis and Kinase Inhibitory Potencies of Pyrazolo[3,4-g]isoquinolines” (Molecules, 2022).
# Legend:
# [1] = target: T1, Haspin-kd (human, kinase domain, amino acids 470–798) (Homo sapiens, UniProt Q8TF76); assay: ADP-Glo kinase inhibition assay, Haspin; format: biochemical
# T1 construct: Haspin-kd (human, kinase domain, amino acids 470–798, recombinant, expressed in bacteria); host or cells: bacteria
# T1 sequence (Q8TF76 470-798): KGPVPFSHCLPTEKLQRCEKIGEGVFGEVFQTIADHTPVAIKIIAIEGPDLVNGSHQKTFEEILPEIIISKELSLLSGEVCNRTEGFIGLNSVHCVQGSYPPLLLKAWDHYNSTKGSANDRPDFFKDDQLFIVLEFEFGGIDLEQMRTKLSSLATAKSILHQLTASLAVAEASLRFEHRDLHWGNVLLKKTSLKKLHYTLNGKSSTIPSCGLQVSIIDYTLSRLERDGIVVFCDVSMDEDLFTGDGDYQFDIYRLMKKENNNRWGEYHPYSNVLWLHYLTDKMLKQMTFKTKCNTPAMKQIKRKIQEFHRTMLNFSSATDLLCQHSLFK
# Description: (§1) Kinase enzymatic activities were assayed in 384 well plates using the ADP-GloTM assay kit (Promega, Madison, WI, USA) according to the manufacturer’s guidance. Briefly, the reactions were carried out in a final volume of 6 μL for 30 min at 30 °C in an appropriate kinase buffer (10 mM MgCl2, 1 mM EGTA, 1 mM DTT, 25 mM Tris-HCl pH 7.5, 50 μg/mL heparin), with either protein or peptide as substrate in the presence of 10 μM ATP (40 mM Tris pH 7.5, 20 mM MgCl2 and 0.1 mg/mL of BSA). Afterward, 6 μL of ADP-GloTM Kinase Reagent was added to stop the kinase reaction. After an incubation time of 50 min at room temperature (RT), 12 μL of Kinase Detection Reagent was added for 1 h at RT. The transmitted signal was measured using the Envision (Perkin Elmer, Waltham, MA, USA) microplate luminometer and expressed in relative light unit (RLU). In order to determine the half maximal inhibitory concentration (IC50), the assays were performed in duplicate in the absence or presence of increasing doses of the tested compounds. GraphPad Prism6 software (GraphPad Software, San Diego, CA, USA) was used to fit dose–response curves and to determine the IC50 values. Kinase activities are expressed in the percentage of maximal activity, i.e., measured in the absence of an inhibitor. Peptide substrates were obtained from Proteogenix (Schiltigheim, France).
# MmCLK1 = target: T2, MmCLK1 (Mus musculus, UniProt P22518); assay: ADP-Glo kinase inhibition assay, CLK1; format: biochemical
# T2 construct: host or cells: bacteria
# T2 sequence (P22518 whole entry): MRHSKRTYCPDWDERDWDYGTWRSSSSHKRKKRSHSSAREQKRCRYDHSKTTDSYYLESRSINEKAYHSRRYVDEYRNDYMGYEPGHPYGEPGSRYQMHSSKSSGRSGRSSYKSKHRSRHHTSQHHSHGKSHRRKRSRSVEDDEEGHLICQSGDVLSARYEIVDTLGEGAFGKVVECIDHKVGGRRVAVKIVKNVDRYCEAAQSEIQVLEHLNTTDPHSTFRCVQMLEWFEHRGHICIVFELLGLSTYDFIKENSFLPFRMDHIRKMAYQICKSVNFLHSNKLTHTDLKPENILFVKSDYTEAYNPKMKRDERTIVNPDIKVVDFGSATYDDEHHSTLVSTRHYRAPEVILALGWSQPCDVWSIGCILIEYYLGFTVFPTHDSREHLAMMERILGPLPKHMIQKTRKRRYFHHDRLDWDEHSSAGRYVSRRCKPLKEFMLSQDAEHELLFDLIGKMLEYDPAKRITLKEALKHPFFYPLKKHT
# Description: as §1
# (§2) The following protein kinases were analyzed in this study: CDK5/p25 (human, recombinant, expressed in bacteria) was assayed with 0.8 μg/μL of histone H1 as substrate; CDK9/CyclinT (human, recombinant, expressed by baculovirus in Sf9 insect cells) were assayed with 0.27 μg/μL of the following peptide: […], as substrate; CK1ε (human, recombinant, expressed by baculovirus in Sf9 insect cells) was assayed with 0.022 μg/μL of the following peptide: […]pAYSITA (“Sp” stands for phosphorylated serine) as CK1-specific substrate; GSK3β (human, recombinant, expressed by baculovirus in Sf9 insect cells) were assayed with 0.010 μg/μL of GS-1 peptide, a GSK-3-selective substrate ([…]pEDEEE); Haspin-kd (human, kinase domain, amino acids 470–798, recombinant, expressed in bacteria) was assayed with 0.007 μg/μL of histone H3 (1–21) peptide ([…]) as substrate; Pim-1 (human proto-oncogene, recombinant, expressed in bacteria) was assayed with 0.8 μg/μL of histone H1 as substrate; MmCLK1 (from Mus musculus, recombinant, expressed in bacteria) was assayed with 0.027 μg/μL of the following peptide: […] as substrate; RnDYRK1A-kd (Rattus norvegicus, amino acids 1–499 including the kinase domain, recombinant, expressed in bacteria, DNA vector kindly provided by Dr. W. Becker, Aachen, Germany) was assayed with 0.033 μg/μL of the following peptide: […] as substrate.
# RnDYRK1A-kd = target: T3, RnDYRK1A-kd (Rattus norvegicus, UniProt Q63470); assay: ADP-Glo kinase inhibition assay, DYRK1A; format: biochemical
# T3 construct: RnDYRK1A-kd (Rattus norvegicus, amino acids 1–499 including the kinase domain, recombinant, expressed in bacteria); made in house; host or cells: bacteria
# Description: as §1, §2
# CDK9/CyclinT = target: T4, CDK9/CyclinT (Homo sapiens, UniProt P50750); assay: ADP-Glo kinase inhibition assay, CDK9/CyclinT; format: biochemical
# T4 construct: host or cells: Sf9 insect cells (baculovirus)
# T4 sequence (O60563 whole entry): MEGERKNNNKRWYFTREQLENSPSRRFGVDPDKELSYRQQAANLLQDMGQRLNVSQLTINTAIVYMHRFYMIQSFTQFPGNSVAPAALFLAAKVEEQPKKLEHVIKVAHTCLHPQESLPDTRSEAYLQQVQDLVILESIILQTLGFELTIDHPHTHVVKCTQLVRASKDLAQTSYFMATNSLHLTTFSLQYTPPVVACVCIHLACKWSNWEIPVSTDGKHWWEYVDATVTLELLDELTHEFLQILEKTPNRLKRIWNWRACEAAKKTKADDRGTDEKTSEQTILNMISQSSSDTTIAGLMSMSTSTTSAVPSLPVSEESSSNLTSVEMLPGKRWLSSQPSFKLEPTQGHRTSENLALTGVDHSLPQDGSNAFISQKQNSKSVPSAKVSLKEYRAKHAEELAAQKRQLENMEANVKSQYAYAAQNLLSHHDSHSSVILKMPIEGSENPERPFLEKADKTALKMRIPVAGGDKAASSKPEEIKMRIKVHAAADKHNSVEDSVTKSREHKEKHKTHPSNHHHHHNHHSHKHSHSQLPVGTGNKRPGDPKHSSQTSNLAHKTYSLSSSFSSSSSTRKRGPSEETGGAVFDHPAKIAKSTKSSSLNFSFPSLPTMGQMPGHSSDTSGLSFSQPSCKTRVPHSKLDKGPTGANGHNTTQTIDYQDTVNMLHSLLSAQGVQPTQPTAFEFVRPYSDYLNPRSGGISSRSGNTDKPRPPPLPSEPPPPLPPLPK
# T4 sequence (P50750 whole entry): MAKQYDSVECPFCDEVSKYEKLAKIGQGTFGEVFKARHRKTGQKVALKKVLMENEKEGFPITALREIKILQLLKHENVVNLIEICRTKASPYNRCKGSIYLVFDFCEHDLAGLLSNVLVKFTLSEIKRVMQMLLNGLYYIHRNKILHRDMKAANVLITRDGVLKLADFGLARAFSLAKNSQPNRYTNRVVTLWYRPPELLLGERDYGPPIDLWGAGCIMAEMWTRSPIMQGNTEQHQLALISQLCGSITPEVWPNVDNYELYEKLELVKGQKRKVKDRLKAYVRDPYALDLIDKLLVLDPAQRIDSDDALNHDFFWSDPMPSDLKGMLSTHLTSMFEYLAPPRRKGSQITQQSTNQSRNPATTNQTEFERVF
# Description: as §1, §2
# GSK3β = target: T5, GSK3β (Homo sapiens, UniProt P49841); assay: ADP-Glo kinase inhibition assay, GSK3β; format: biochemical
# T5 construct: host or cells: Sf9 insect cells (baculovirus)
# T5 sequence (P49841 whole entry): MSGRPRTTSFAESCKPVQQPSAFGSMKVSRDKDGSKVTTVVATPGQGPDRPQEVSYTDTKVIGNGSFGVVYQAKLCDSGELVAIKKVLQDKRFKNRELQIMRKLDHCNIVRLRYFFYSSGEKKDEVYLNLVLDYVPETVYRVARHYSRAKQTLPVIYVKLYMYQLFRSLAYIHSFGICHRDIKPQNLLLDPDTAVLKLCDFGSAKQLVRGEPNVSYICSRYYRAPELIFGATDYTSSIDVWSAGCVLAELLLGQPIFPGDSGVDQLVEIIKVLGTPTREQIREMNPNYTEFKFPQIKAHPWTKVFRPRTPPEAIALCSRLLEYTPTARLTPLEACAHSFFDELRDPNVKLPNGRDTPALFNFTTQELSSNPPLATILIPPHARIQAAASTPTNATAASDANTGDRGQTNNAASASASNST
# Description: as §1, §2
# CK1ε = target: T6, CK1ε (Homo sapiens, UniProt P49674); assay: ADP-Glo kinase inhibition assay, CK1ε; format: biochemical; conditions: 10 μM ATP, duplicate
# T6 construct: host or cells: Sf9 insect cells (baculovirus)
# T6 sequence (P49674 whole entry): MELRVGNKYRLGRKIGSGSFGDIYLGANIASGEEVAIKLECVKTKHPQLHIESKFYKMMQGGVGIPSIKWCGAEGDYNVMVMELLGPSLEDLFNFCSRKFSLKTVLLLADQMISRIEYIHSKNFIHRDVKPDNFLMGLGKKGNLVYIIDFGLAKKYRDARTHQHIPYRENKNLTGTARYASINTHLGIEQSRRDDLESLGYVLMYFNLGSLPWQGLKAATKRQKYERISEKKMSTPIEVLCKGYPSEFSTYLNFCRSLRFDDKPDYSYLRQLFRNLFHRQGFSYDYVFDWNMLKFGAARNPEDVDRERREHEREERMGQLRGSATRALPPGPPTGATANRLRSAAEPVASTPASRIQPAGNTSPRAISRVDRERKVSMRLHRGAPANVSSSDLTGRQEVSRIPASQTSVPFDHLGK
# Description: as §1, §2
# CDK5/p25 = target: T7, CDK5/p25 (Homo sapiens, UniProt Q00535); assay: ADP-Glo kinase inhibition assay, CDK5/p25; format: biochemical
# T7 construct: host or cells: bacteria
# T7 sequence (Q00535 whole entry): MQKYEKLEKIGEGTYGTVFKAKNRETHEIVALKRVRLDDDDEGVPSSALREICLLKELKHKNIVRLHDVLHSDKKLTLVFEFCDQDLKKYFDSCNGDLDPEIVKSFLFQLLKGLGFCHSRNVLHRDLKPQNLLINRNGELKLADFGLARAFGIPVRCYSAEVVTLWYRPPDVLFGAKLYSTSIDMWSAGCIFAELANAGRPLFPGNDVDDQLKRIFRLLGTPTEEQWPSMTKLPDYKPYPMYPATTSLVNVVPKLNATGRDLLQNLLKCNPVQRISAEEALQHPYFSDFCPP
# T7 sequence (Q15078 99-307, further chain): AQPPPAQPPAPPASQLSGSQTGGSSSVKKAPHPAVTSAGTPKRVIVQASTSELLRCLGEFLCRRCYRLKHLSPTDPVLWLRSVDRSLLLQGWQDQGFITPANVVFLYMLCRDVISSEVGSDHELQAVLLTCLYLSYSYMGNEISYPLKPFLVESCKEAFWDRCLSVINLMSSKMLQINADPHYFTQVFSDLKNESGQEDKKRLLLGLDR
# Description: as §1, §2
# Pim-1 = target: T8, Pim-1 (Homo sapiens, UniProt P11309); assay: ADP-Glo kinase inhibition assay, Pim-1; format: biochemical; conditions: 10 μM ATP, duplicate
# T8 construct: host or cells: bacteria
# T8 sequence (P11309 whole entry): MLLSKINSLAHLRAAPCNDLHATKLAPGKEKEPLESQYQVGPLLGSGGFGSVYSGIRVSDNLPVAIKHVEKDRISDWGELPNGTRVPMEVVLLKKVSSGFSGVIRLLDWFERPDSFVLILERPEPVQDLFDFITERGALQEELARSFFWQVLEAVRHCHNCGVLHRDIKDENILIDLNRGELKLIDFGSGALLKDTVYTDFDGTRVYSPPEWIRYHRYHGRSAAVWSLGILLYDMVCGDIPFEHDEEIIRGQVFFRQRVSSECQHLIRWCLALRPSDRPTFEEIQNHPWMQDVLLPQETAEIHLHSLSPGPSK
# Description: as §1, §2
# [2] = test system: Haspin, CLK1, DYRK1A, CDK9/Cyclin T, GSK-3β, CK1ε, CDK5/p25 and Pim1; assay: Panel of eight protein kinases (ADP-Glo), statements across kinases; format: biochemical; conditions: 1 μM compound
# Description: It should be noted that due to solubility issues, compound 1a could not be tested; only the corresponding methane sulfonate salt 1a’ was evaluated. The percentage of residual kinase activity was evaluated at 10 μM and 1 μM compound concentrations. […].
# as §1, with “GraphPad Prism6 software (GraphPad Software, San Diego, CA, USA) was used to fit dose–response curves and to determine the IC50 values.” left out, “Peptide substrates were obtained from Proteogenix (Schiltigheim, France).” left out
smiles,measurement,setting,value
"Nc1c2ccncc2cc2cn[nH]c12 [Compound 2a, 1-H-pyrazolo[3,4-g]isoquinolin-9-amine]",IC50,"[1]; 10 μM ATP, duplicate",127 nM
same,Selectivity Index (SI) Haspin vs. CLK1 = CLK1 IC50/Haspin IC50,[1]; Haspin vs. CLK1,2.3
same,remaining activity at 1 µM,[1]; read-out: Haspin % residual activity at 1 μM,13%
same,remaining activity at 10 µM,[1]; read-out: Haspin % residual activity at 10 μM,8%
same,IC50,"MmCLK1; 10 μM ATP, duplicate, read-out: CLK1 IC50",296 nM
same,remaining activity at 1 µM,MmCLK1; read-out: CLK1 % residual activity at 1 μM,20%
same,remaining activity at 10 µM,MmCLK1; read-out: CLK1 % residual activity at 10 μM,8%
same,IC50,"RnDYRK1A-kd; 10 μM ATP, duplicate, read-out: DYRK1A IC50",600 nM
same,remaining activity at 1 µM,RnDYRK1A-kd; read-out: DYRK1A % residual activity at 1 μM,32%
same,remaining activity at 10 µM,RnDYRK1A-kd; read-out: DYRK1A % residual activity at 10 μM,12%
same,IC50,"CDK9/CyclinT; 10 μM ATP, duplicate",430 nM
same,remaining activity at 1 µM,CDK9/CyclinT; read-out: CDK9 % residual activity at 1 μM,22%
same,remaining activity at 10 µM,CDK9/CyclinT; read-out: CDK9 % residual activity at 10 μM,10%
same,IC50,"GSK3β; 10 μM ATP, duplicate, read-out: GSK3 IC50",411 nM
same,remaining activity at 1 µM,GSK3β; read-out: GSK3 % residual activity at 1 μM,48%
same,remaining activity at 10 µM,GSK3β; read-out: GSK3 % residual activity at 10 μM,18%
same,remaining activity at 1 µM,"CK1ε; 1 μM compound, read-out: CK1 % residual activity at 1 μM",71%
same,remaining activity at 10 µM,"CK1ε; 10 μM compound, read-out: CK1 % residual activity at 10 μM",28%
same,IC50,"CDK5/p25; 10 μM ATP, duplicate",927 nM
same,remaining activity at 1 µM,CDK5/p25; read-out: CDK5 % residual activity at 1 μM,45%
same,remaining activity at 10 µM,CDK5/p25; read-out: CDK5 % residual activity at 10 μM,17%
same,remaining activity at 1 µM,"Pim-1; 1 μM compound, read-out: PIM1 % residual activity at 1 μM",100%
same,remaining activity at 10 µM,"Pim-1; 10 μM compound, read-out: PIM1 % residual activity at 10 μM",90%
same,kinases inhibited to more than 50% at 1 μM,[2],six out of eight
same,melting point,,> 250 °C
